# Measured values reported in publication PMC3524758, “Development and evaluation of a novel radioiodinated vesamicol analog as a sigma receptor imaging agent” (EJNMMI Research, 2012).
# Values joined by “and” are separate entries in the source; they are usually repeats but may differ in a detail not shown here. Identical values can stand only once. Marks after values point to notes of the source that are not given here.
# Legend:
# [1] = system: DU-145 prostate cancer cell lines; assay: Cellular uptake and washout experiments in vitro; assay type: cell-based; conditions: DU-145 cells
# Description: Radiotracer uptake studies were performed in monolayer cultures of DU-145 prostate cancer cell lines, which were obtained from ATCC (Manassas, VA, USA). Cells were grown in cell culture dishes in RPMI 1640 medium with phenol red, 10% heat-inactivated fetal bovine serum (FBS), 100-μg/mL glutamine, 100-units/mL penicillin, and 100-μg/mL streptomycin at 37°C in a humidified atmosphere of 95% air and 5% carbon dioxide. Cells were plated on 6-well tissue culture plates (4 × 10^5 cells/well) for 24 h before the study and incubated at 37°C in the culture medium without FBS containing (+)-^125I]IV-OH or (+)-^125I]pIV (3.7 kBq/well), which was prepared by a method of a previous study for different time intervals (15, 30, 60, and 120 min). For the washout experiment, tumor cells exposed to a medium containing (+)-^125I]IV-OH or (+)-^125I]pIV for 60 min were washed with phosphate buffered saline (PBS) and incubated in fresh (nonradioactive) medium without FBS at 37°C for 15, 30, and 60 min. […] After incubation, cells were washed twice with ice-cold PBS and resolved by adding 0.5 mL of 1-M NaOH. The solutions were then collected and the radioactivity was determined with an auto well gamma counter (ARC-380; Aloka) and corrected for background radiation. The radioactivity of each sample was normalized for the protein level, which was determined using a Protein Assay Bicinchoninate Kit (Nacalai Tesque).
# [2] = Metabolite analysis in blood, tumor and other tissues (TLC); assay type: in vivo, mice; conditions: i.v., mean (SD) three samples
# Description: For metabolite analysis, the above-mentioned DU-145 tumor-bearing mice were intravenously administered with 100 μL of (+)-[^125I]IV-OH (3.7 MBq). At 10-min and 1-h post-injections, the mice were killed. Blood was collected and tissues of interest were removed. The blood was centrifuged at 1,000×g for 10 min at 4°C. After the plasma was collected, an equivalent volume of acetonitrile/water mixture (1:1) was added to the plasma. The mixture was centrifuged at 1,000×g for 10 min at 4°C. The tissues of interest (0.2 to 0.5 g) were homogenized in 1 mL of acetonitrile-water mixture (1:1). Each homogenized sample was centrifuged at 1,000×g for 10 min at 4°C. The supernatants were analyzed by TLC with a chloroform/methanol mixture (5:1) as a developing solvent. TLC plates were exposed to phosphor imaging plates (BAS IP SR 2025 E, Fujifilm, Tokyo, Japan) for 48 h. The exposed imaging plates were evaluated using an imaging scanner (BAS 5000 Bio-Imaging Analyzer, Fujifilm).
# [3] = Biodistribution in DU-145 tumor-bearing mice; assay type: in vivo; conditions: i.v., mean (SD)
# Description: (+)-^131I]pIV was prepared using a method described previously. To produce tumors, approximately 5 × 10^6 of the prepared DU-145 cells was injected subcutaneously into the right dorsum of 4-week-old male BALB/c nude mice (15 to 19 g, Japan SLC, Inc.). Biodistribution experiments were performed at approximately 14- to 21-day post-inoculation, i.e., when tumors reached a palpable size. Groups of four mice were intravenously administered with 100 μL of a mixed solution of (+)-^125I]IV-OH (37 kBq) and (+)-^131I]pIV (37 kBq). At 10-min, 1-, 3-, and 24-h post-injections, the mice were killed. Tissues of interest were removed and weighed, and radioactivity counts were determined with an auto well gamma counter and corrected for background radiation. A window from 16 to 71 keV was used for measuring ^125I and one from 300 to 433 keV for ^131I. The crossover of ^125I activity into the ^131I channel was negligible. Correlation factors to eliminate any crossover of ^131I activity into ^125I were determined by measuring the ^131I standard in both windows.
# [4] = Partition coefficient (1-octanol / 0.02-M phosphate buffer); assay type: physicochemical
# Description: The partition coefficient of (+)-^125I]IV-OH was measured as described previously.
compound,measurement,setting,value
"Oc1ccc(C2CCN(C3CCCCC3O)CC2)cc1[125I] (single isomer, unassigned; (+)) [(+)-[^125I]IV-OH]",time at which uptake was saturated,[1],30 min
same,accumulation in the presence of haloperidol,[1]; haloperidol 10 μM in culture medium,remarkably lessened
same,intracellular radioactivity released into the supernatant,"[1]; within 60 min after medium replacement, specific uptake",Approximately 71%
same,"percent of intact (+)-[^125I]IV-OH, Blood",[2]; 10 min post-injection,17.0 (9.0) percent
same,"percent of intact (+)-[^125I]IV-OH, Blood",[2]; 1 h post-injection,0.9% and 0.9 (1.0) percent
same,"percent of intact (+)-[^125I]IV-OH, Brain",[2]; 10 min post-injection,96.4 (1.1) percent
same,"percent of intact (+)-[^125I]IV-OH, Brain",[2]; 1 h post-injection,73.7 (8.4) percent
same,"percent of intact (+)-[^125I]IV-OH, Kidney",[2]; 10 min post-injection,19.8 (3.7) percent
same,"percent of intact (+)-[^125I]IV-OH, Kidney",[2]; 1 h post-injection,2.6% and 2.6 (1.8) percent
same,"percent of intact (+)-[^125I]IV-OH, Liver",[2]; 10 min post-injection,5.4 (7.4) percent
same,"percent of intact (+)-[^125I]IV-OH, Liver",[2]; 1 h post-injection,0.1% and 0.1 (0.2) percent
same,"percent of intact (+)-[^125I]IV-OH, Tumor",[2]; 10 min post-injection,93.1 (4.3) percent
same,"percent of intact (+)-[^125I]IV-OH, Tumor",[2]; 1 h post-injection,70.2 (5.6) percent
same,"Biodistribution of radioactivity, Blood",[3]; 10 min post-injection,1.28 (0.13)* percent injected dose per gram tissue
same,"Biodistribution of radioactivity, Blood",[3]; 1 h post-injection,1.04 (0.10)* percent injected dose per gram tissue
same,"Biodistribution of radioactivity, Blood",[3]; 3 h post-injection,0.43 (0.09)** percent injected dose per gram tissue
same,"Biodistribution of radioactivity, Blood",[3]; 24 h post-injection,0.00 (0.00)* percent injected dose per gram tissue
same,"Biodistribution of radioactivity, Brain",[3]; 10 min post-injection,5.14 (0.50)* percent injected dose per gram tissue
same,"Biodistribution of radioactivity, Brain",[3]; 1 h post-injection,1.04 (0.08)* percent injected dose per gram tissue
same,"Biodistribution of radioactivity, Brain",[3]; 3 h post-injection,0.22 (0.02)* percent injected dose per gram tissue
same,"Biodistribution of radioactivity, Brain",[3]; 24 h post-injection,0.00 (0.00)* percent injected dose per gram tissue
same,"Biodistribution of radioactivity, Heart",[3]; 10 min post-injection,3.57 (0.40)* percent injected dose per gram tissue
same,"Biodistribution of radioactivity, Heart",[3]; 1 h post-injection,0.78 (0.05)* percent injected dose per gram tissue
same,"Biodistribution of radioactivity, Heart",[3]; 3 h post-injection,0.27(0.00)** percent injected dose per gram tissue
same,"Biodistribution of radioactivity, Heart",[3]; 24 h post-injection,0.01 (0.01)* percent injected dose per gram tissue
same,"Biodistribution of radioactivity, Intestine",[3]; 10 min post-injection,5.26 (0.61)* percent injected dose per gram tissue
same,"Biodistribution of radioactivity, Intestine",[3]; 1 h post-injection,7.96 (0.72)* percent injected dose per gram tissue
same,"Biodistribution of radioactivity, Intestine",[3]; 3 h post-injection,4.84 (0.95) percent injected dose per gram tissue
same,"Biodistribution of radioactivity, Intestine",[3]; 24 h post-injection,0.14 (0.02)* percent injected dose per gram tissue
same,"Biodistribution of radioactivity, Kidney",[3]; 10 min post-injection,35.01 (2.83)* percent injected dose per gram tissue
same,"Biodistribution of radioactivity, Kidney",[3]; 1 h post-injection,15.30 (1.80) percent injected dose per gram tissue
same,"Biodistribution of radioactivity, Kidney",[3]; 3 h post-injection,4.89 (0.87)** percent injected dose per gram tissue
same,"Biodistribution of radioactivity, Kidney",[3]; 24 h post-injection,0.04 (0.01)* percent injected dose per gram tissue
same,"Biodistribution of radioactivity, Liver",[3]; 10 min post-injection,7.82 (0.32)* percent injected dose per gram tissue
same,"Biodistribution of radioactivity, Liver",[3]; 1 h post-injection,9.80 (0.94)** percent injected dose per gram tissue
same,"Biodistribution of radioactivity, Liver",[3]; 3 h post-injection,2.81 (0.33)* percent injected dose per gram tissue
same,"Biodistribution of radioactivity, Liver",[3]; 24 h post-injection,0.06 (0.03)* percent injected dose per gram tissue
same,"Biodistribution of radioactivity, Lung",[3]; 10 min post-injection,9.74 (1.59)* percent injected dose per gram tissue
same,"Biodistribution of radioactivity, Lung",[3]; 1 h post-injection,1.85 (0.18)* percent injected dose per gram tissue
same,"Biodistribution of radioactivity, Lung",[3]; 3 h post-injection,0.63 (0.11)* percent injected dose per gram tissue
same,"Biodistribution of radioactivity, Lung",[3]; 24 h post-injection,0.01 (0.02)* percent injected dose per gram tissue
same,"Biodistribution of radioactivity, Muscle",[3]; 10 min post-injection,2.20 (0.58) percent injected dose per gram tissue
same,"Biodistribution of radioactivity, Muscle",[3]; 1 h post-injection,0.45 (0.03)* percent injected dose per gram tissue
same,"Biodistribution of radioactivity, Muscle",[3]; 3 h post-injection,0.26 (0.10) percent injected dose per gram tissue
same,"Biodistribution of radioactivity, Muscle",[3]; 24 h post-injection,0.01 (0.01)* percent injected dose per gram tissue
same,"Biodistribution of radioactivity, Pancreas",[3]; 10 min post-injection,25.04 (2.40)* percent injected dose per gram tissue
same,"Biodistribution of radioactivity, Pancreas",[3]; 1 h post-injection,12.80 (0.97)* percent injected dose per gram tissue
same,"Biodistribution of radioactivity, Pancreas",[3]; 3 h post-injection,2.94 (0.49)* percent injected dose per gram tissue
same,"Biodistribution of radioactivity, Pancreas",[3]; 24 h post-injection,0.01 (0.01)* percent injected dose per gram tissue
same,"Biodistribution of radioactivity, Spleen",[3]; 10 min post-injection,8.11 (1.24) percent injected dose per gram tissue
same,"Biodistribution of radioactivity, Spleen",[3]; 1 h post-injection,1.84 (0.11)* percent injected dose per gram tissue
same,"Biodistribution of radioactivity, Spleen",[3]; 3 h post-injection,0.60 (0.12)* percent injected dose per gram tissue
same,"Biodistribution of radioactivity, Spleen",[3]; 24 h post-injection,0.01 (0.02)* percent injected dose per gram tissue
same,"Biodistribution of radioactivity, Stomach",[3]; 10 min post-injection,1.18 (0.36) percent injected dose
same,"Biodistribution of radioactivity, Stomach",[3]; 1 h post-injection,0.62 (0.18) percent injected dose
same,"Biodistribution of radioactivity, Stomach",[3]; 3 h post-injection,0.55 (0.25) percent injected dose
same,"Biodistribution of radioactivity, Stomach",[3]; 24 h post-injection,0.03 (0.02)* percent injected dose
same,"Biodistribution of radioactivity, Tumor",[3]; 10 min post-injection,9.55 (0.64)** percent injected dose per gram tissue
same,"Biodistribution of radioactivity, Tumor",[3]; 1 h post-injection,5.45 (0.70) percent injected dose per gram tissue
same,"Biodistribution of radioactivity, Tumor",[3]; 3 h post-injection,2.57 (0.41) percent injected dose per gram tissue
same,"Biodistribution of radioactivity, Tumor",[3]; 24 h post-injection,0.06 (0.04)** percent injected dose per gram tissue
same,log P,[4],1.13 ± 0.01
